Measurements: ChEMBL document CHEMBL3860035, “Isolation and Structure Elucidation of Cytotoxic Saccharothriolides D to F from a Rare Actinomycete Saccharothrix sp. and Their Structure-Activity Relationship” (J Nat Prod, 2016)
Where a name gives a salt, the structure may show the parent alone.

Tests used:
[1] = Cytotoxicity against human HT1080 cells assessed as reduction cell viability after 72 hrs by WST8-based colorimetric analysis; format: functional; conditions: HT-1080, 72 h
[2] = Cytotoxicity against human HT1080 cells; format: functional, cell-based; conditions: HT-1080

| Compound | IC50 [1] | IC50 [2] |
| --- | --- | --- |
| C[C@@H]1[C@@H](Nc2ccccc2O)[C@@H](C)C(=O)[C@@H](C)[C@@H](O)[C@H](C)C(=O)O[C@@H]1c1cc(O)cc(O)c1 | 29.2 µM | – |
| C[C@@H]1[C@@H](Nc2ccccc2C(=O)O)[C@@H](C)C(=O)[C@@H](C)[C@@H](O)CC(=O)O[C@@H]1c1cc(O)cc(O)c1 | 66.4 µM | – |
| C[C@@H]1[C@@H](Nc2ccccc2O)[C@@H](C)C(=O)[C@@H](C)[C@@H](O)[C@@H](C)C(=O)O[C@@H]1c1cc(O)cc(O)c1 | – | 13.9 µM |
| COc1cccc2c1C(=O)c1c(O)c3c(c(O)c1C2=O)C[C@@](O)(C(=O)CO)C[C@@H]3O[C@H]1C[C@H](N)[C@H](O)[C@H](C)O1 [DOXORUBICIN HYDROCHLORIDE] | 0.38 µM | – |
